Reference: ChEMBL document CHEMBL5649167, “The SUV4-20 inhibitor A-196 verifies a role for epigenetics in genomic integrity” (Nat Chem Biol, 2017)
Each block holds one molecule with its values, some of them ahead of it. The source made the active and inactive calls. The rule behind the calls is not given here.

How the values were obtained:
U2OS [1] = assay: Inhibition of H4K20me1 in human U2OS cells assessed as change in methylation level at 10 uM incubated for 48 hrs by Western blotting analysis; format: functional, cell-based
U2OS [2] = assay: Inhibition of H4K20me3 in human U2OS cells assessed as change in methylation level at 10 uM incubated for 48 hrs by Western blotting analysis; format: functional, cell-based
MEF [3] = assay: Antiproliferative activity against mouse MEF cells assessed as change in H4K20me3 at 10 uM incubated for 3 days by immunofluorescence analysis; format: functional, cell-based; details: time 3.0 day
[4] = molecular target: Histone-lysine N-methyltransferase EHMT2 (Homo sapiens) (UniProt Q96KQ7); assay: Inhibition of G9a (unknown origin) using Biotin-tagged H4K20me1 and [3H-SAM] as substrate at 1 to 10 uM incubated for 2 hrs by scintillation proximity assay; details: dose 1-10 µM
[5] = molecular target: Protein arginine N-methyltransferase 3 (Homo sapiens) (UniProt O60678); assay: Inhibition of PRMT3 (unknown origin) using Biotin-tagged H4K20me1 and [3H-SAM] as substrate at 1 to 10 uM incubated for 2 hrs by scintillation proximity assay; details: dose 1-10 µM
Sequence of Protein arginine N-methyltransferase 3 (Homo sapiens) (O60678 2-531 limits assumed): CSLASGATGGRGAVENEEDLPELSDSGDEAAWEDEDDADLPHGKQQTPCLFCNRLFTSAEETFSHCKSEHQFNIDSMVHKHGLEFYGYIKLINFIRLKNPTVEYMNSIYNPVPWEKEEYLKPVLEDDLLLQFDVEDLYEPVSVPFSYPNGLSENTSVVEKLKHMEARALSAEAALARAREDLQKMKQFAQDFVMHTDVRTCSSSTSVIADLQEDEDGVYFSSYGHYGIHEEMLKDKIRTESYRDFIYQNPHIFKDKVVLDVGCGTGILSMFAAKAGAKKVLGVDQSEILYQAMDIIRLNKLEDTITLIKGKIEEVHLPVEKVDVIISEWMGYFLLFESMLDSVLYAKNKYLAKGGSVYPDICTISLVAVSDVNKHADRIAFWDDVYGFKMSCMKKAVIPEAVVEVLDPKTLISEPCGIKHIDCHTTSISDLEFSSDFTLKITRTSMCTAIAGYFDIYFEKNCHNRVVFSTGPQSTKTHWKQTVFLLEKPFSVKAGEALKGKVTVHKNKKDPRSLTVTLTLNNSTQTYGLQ

[6] = molecular target: Protein arginine N-methyltransferase 7 (Homo sapiens) (UniProt Q9NVM4); assay: Inhibition of PRMT7 (unknown origin) using Biotin-tagged H4K20me1 and [3H-SAM] as substrate at 1 to 10 uM incubated for 2 hrs by scintillation proximity assay; details: dose 1-10 µM
Sequence of Protein arginine N-methyltransferase 7 (Homo sapiens) (Q9NVM4 whole entry): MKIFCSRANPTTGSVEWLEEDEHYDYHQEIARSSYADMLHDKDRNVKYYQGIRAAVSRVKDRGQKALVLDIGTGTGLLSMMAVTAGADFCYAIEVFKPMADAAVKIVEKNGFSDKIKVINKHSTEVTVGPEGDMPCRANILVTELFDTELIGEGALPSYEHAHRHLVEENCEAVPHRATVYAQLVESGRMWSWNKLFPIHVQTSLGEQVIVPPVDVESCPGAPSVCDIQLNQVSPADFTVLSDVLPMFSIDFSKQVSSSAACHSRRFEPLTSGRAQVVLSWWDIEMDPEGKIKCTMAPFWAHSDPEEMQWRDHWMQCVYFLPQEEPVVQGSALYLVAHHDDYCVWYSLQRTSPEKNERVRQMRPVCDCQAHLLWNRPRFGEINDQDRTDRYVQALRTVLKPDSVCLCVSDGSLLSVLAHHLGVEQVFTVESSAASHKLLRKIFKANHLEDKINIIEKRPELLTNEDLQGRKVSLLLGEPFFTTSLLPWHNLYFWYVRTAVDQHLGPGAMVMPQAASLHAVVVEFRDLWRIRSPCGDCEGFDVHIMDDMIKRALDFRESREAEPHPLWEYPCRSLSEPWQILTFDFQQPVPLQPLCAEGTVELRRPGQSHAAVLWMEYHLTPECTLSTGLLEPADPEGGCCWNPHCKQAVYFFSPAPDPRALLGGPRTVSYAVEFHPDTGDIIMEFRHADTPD

[7] = molecular target: N-lysine methyltransferase KMT5A (Homo sapiens) (UniProt Q9NQR1); assay: Inhibition of SETD8 (unknown origin) using Biotin-tagged H4K20me1 and [3H-SAM] as substrate at 1 to 10 uM incubated for 2 hrs by scintillation proximity assay; details: dose 1-10 µM
Sequence of N-lysine methyltransferase KMT5A (Homo sapiens) (Q9NQR1 whole entry): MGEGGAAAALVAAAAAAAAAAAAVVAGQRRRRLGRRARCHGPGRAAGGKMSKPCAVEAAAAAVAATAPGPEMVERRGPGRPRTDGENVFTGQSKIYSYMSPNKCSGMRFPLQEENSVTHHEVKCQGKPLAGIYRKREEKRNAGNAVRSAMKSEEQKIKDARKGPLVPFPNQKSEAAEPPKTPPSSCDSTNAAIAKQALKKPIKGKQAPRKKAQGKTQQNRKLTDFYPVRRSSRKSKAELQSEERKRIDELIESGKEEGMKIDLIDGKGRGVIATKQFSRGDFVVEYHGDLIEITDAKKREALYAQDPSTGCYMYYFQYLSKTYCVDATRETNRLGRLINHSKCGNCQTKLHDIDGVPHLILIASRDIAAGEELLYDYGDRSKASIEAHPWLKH

[8] = molecular target: Histone-lysine N-methyltransferase SETDB1 (Homo sapiens) (UniProt Q15047); assay: Inhibition of SETDB1 (unknown origin) using Biotin-tagged H4K20me1 and [3H-SAM] as substrate at 1 to 10 uM incubated for 2 hrs by scintillation proximity assay; details: dose 1-10 µM
[9] = molecular target: Histone-lysine N-methyltransferase EHMT1 (Homo sapiens) (UniProt Q9H9B1); assay: Inhibition of EHMT1 (unknown origin) using Biotin-tagged H4K20me1 and [3H-SAM] as substrate at 1 to 10 uM incubated for 2 hrs by scintillation proximity assay; details: dose 1-10 µM
[10] = molecular target: Histone-lysine N-methyltransferase 2C (Homo sapiens) (UniProt Q8NEZ4); assay: Inhibition of MLL3 (unknown origin) using Biotin-tagged H4K20me1 and [3H-SAM] as substrate at 1 to 10 uM incubated for 2 hrs by scintillation proximity assay; details: dose 1-10 µM
[11] = molecular target: Histone-lysine N-methyltransferase SMYD3 (Homo sapiens) (UniProt Q9H7B4); assay: Inhibition of SMYD3 (unknown origin) using Biotin-tagged H4K20me1 and [3H-SAM] as substrate at 1 to 10 uM incubated for 2 hrs by scintillation proximity assay; details: dose 1-10 µM
Sequence of Histone-lysine N-methyltransferase SMYD3 (Homo sapiens) (Q9H7B4 whole entry): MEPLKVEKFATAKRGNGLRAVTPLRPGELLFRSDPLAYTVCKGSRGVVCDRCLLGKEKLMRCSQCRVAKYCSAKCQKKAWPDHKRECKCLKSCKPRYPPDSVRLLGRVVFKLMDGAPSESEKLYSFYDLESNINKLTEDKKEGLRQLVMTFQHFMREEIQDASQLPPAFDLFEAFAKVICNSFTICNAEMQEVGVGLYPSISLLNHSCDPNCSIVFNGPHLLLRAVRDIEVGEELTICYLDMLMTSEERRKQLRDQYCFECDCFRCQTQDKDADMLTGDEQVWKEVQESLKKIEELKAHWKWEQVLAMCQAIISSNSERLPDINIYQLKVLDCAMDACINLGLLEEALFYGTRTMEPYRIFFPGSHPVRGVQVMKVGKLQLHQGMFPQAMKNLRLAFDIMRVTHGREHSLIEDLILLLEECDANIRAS

[12] = molecular target: Histone-lysine N-methyltransferase ASH1L (Homo sapiens) (UniProt Q9NR48); assay: Inhibition of ASH1L (unknown origin) at 1 to 10 uM incubated for 1 hrs by scintillation proximity assay; details: dose 1-10 µM
[13] = molecular target: DNMT3A2/3L complex (Homo sapiens) (UniProt Q9Y6K1+Q9UJW3); assay: Inhibition of DNMT3A/3L (unknown origin) at 1 to 10 uM incubated for 1 hrs by scintillation proximity assay; format: protein-complex assay; details: dose 1-10 µM
[14] = molecular target: Histone-lysine N-methyltransferase KMT5B (Homo sapiens) (UniProt Q4FZB7); assay: Binding affinity to recombinant human 6His-(Tev)-G-SUV420H1 (69 to 335 residues) assessed as increase thermal stability by measuring change in melting temperature at 50 uM by thermal shift assay
Sequence of Histone-lysine N-methyltransferase KMT5B (Homo sapiens) (Q4FZB7 whole entry, looked up, the tested form may be a part): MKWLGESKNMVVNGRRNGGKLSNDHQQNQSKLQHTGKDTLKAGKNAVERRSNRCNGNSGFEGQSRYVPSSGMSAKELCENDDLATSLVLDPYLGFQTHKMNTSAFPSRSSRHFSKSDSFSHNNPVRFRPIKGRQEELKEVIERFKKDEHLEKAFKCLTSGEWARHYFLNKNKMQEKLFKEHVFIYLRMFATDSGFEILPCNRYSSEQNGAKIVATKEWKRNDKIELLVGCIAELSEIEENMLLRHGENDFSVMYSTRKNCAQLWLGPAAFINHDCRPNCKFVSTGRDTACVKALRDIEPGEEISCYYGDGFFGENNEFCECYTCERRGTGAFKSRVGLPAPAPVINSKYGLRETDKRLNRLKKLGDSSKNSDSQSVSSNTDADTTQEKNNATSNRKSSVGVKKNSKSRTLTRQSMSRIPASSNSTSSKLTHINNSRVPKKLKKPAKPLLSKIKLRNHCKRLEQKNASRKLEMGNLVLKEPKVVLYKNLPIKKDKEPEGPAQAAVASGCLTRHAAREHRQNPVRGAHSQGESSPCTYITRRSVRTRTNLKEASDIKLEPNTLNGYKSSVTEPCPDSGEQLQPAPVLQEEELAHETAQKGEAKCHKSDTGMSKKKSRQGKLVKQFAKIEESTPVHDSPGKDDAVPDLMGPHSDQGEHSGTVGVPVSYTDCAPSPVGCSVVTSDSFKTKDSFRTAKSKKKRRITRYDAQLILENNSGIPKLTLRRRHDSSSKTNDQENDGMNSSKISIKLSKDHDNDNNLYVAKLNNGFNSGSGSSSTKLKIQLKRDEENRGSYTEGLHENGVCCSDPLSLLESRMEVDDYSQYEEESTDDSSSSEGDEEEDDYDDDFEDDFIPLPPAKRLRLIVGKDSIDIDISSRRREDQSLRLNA

U2OS [15] = assay: Inhibition of H4K20me2 in human U2OS cells at 3 uM incubated for 48 hrs by Western blotting analysis; format: functional, cell-based
U2OS [16] = assay: Induction of cell cycle arrest in human U2OS cells assessed as increase in H4K20me1 in S phase at 0.6 to 6 uM by plot analysis; format: functional, cell-based; details: dose 0.6-6 µM
U2OS [17] = assay: Induction of cell cycle arrest in human U2OS cells assessed as decrease in H4K20me3 in S phase at 0.6 to 6 uM by plot analysis; format: functional, cell-based; details: dose 0.6-6 µM
PC-3 = assay: Antiproliferative activity against human PC-3 cells assessed as cell population doubling at 1 uM incubated for 80 days; format: functional, cell-based; details: time 80.0 day
HeLa = assay: Antiproliferative activity against human HeLa cells assessed as inhibition in H4K20me2 expression level 21 doublings by Western blot analysis; format: functional, cell-based
MEF [18] = assay: Antiproliferative activity against mouse MEF cells assessed as increase in H4K20me1 level at 10 uM incubated for 3 days by immunofluorescence analysis; format: functional, cell-based; details: time 3.0 day
U2OS [19] = assay: Induction of DNA repair in human U2OS cells expressing I-SceI reporter assessed as increase in H4K20me1 level by Western blot analysis; format: functional, cell-based
U2OS [20] = assay: Induction of DNA repair in human U2OS cells expressing I-SceI reporter assessed as decrease in H4K20me2 level by Western blot analysis; format: functional, cell-based
U2OS [21] = assay: Induction of DNA repair in human U2OS cells expressing I-SceI reporter assessed as substantially inhibition in NHEJ-mediated repair at 1 uM by flow cytometry analysis; format: functional, cell-based
U2OS [22] = assay: Inhibition of colony formation in human U2OS cells at 1 uM incubated for 48 hrs in the presence of etoposide by cell clonogenic assay; format: functional, cell-based
U2OS [23] = assay: Inhibition of colony formation in human U2OS cells at 1 uM incubated for 48 hrs in the presence of MMC by cell clonogenic assay; format: functional, cell-based
[24] = molecular target: Cyclin-dependent kinase 1 (Homo sapiens) (UniProt P06493); assay: Inhibition of human CDC2 at 10 uM relative to control
Sequence of Cyclin-dependent kinase 1 (Homo sapiens) (P06493 whole entry, looked up): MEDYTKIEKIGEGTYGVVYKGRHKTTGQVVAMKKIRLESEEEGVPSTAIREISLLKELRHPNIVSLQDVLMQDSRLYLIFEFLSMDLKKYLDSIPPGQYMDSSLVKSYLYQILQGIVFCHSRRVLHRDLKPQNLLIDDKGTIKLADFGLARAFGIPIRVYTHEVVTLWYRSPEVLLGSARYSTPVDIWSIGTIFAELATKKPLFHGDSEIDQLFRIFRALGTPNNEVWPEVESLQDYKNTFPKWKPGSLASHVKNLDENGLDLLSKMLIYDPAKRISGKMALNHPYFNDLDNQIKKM

[25] = molecular target: Mitogen-activated protein kinase 1 (Homo sapiens) (UniProt P28482); assay: Inhibition of human ERK2 at 10 uM relative to control
Sequence of Mitogen-activated protein kinase 1 (Homo sapiens) (P28482 whole entry): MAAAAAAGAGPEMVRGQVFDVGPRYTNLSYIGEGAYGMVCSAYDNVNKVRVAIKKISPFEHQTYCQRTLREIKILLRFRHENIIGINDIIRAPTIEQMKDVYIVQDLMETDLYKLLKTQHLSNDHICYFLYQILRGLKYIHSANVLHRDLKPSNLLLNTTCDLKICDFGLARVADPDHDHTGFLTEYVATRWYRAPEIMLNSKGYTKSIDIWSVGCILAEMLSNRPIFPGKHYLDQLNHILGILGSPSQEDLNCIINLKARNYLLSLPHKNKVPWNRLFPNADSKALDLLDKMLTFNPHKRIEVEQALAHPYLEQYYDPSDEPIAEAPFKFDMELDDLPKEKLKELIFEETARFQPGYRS

[26] = molecular target: Glycogen synthase kinase-3 beta (Homo sapiens) (UniProt P49841); assay: Inhibition of human GSK3beta at 10 uM relative to control
[27] = molecular target: cAMP-dependent protein kinase (PKA) (Homo sapiens) (UniProt P22694+P17612+P22612); assay: Inhibition of human PKA at 10 uM relative to control; format: protein assay
[28] = molecular target: Serine/threonine-protein kinase 26 (Homo sapiens) (UniProt Q9P289); assay: Inhibition of human MST4 at 10 uM relative to control
Sequence of Serine/threonine-protein kinase 26 (Homo sapiens) (Q9P289 2-416 limits assumed): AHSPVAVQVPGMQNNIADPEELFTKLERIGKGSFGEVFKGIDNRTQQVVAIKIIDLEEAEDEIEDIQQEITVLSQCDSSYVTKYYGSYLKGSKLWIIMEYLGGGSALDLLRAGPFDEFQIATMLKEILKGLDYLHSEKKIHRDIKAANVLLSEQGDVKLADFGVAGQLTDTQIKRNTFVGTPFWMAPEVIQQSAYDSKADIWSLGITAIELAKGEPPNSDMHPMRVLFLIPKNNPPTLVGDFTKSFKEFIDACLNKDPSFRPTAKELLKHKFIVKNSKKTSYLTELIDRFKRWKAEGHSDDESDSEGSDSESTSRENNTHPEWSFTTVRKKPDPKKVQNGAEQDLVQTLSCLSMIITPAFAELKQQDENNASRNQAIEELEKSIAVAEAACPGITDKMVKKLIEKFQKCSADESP

[29] = molecular target: Mitogen-activated protein kinase 14 (Homo sapiens) (UniProt Q16539); assay: Inhibition of human p38alpha at 10 uM relative to control
[30] = molecular target: Serine/threonine-protein kinase Sgk1 (Homo sapiens) (UniProt O00141); assay: Inhibition of human SGK1 at 10 uM relative to control
Sequence of Serine/threonine-protein kinase Sgk1 (Homo sapiens) (O00141 whole entry): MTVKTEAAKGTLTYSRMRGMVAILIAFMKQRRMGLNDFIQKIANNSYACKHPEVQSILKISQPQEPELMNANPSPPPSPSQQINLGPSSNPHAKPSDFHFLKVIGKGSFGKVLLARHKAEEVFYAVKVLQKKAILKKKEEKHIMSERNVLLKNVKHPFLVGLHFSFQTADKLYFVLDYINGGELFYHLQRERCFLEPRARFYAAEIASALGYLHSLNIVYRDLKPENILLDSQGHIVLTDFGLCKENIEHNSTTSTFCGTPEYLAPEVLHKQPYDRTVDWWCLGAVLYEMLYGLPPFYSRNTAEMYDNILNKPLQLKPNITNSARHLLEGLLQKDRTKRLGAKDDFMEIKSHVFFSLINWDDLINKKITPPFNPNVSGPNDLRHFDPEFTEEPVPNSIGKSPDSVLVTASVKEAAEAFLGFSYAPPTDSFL

[31] = molecular target: Aurora kinase A (Homo sapiens) (UniProt O14965); assay: Inhibition of human AurA at 10 uM relative to control
Sequence of Aurora kinase A (Homo sapiens) (O14965 whole entry): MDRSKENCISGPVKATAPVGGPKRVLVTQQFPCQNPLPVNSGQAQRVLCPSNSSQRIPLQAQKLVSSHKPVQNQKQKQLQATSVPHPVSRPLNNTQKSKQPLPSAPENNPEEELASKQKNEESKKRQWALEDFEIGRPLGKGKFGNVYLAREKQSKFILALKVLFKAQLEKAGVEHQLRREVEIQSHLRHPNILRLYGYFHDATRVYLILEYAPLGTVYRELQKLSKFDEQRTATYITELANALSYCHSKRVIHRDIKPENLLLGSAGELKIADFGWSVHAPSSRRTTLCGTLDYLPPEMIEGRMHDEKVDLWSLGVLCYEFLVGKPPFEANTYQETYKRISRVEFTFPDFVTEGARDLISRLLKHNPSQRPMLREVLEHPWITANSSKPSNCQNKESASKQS

[32] = molecular target: Fibroblast growth factor receptor 1 (Homo sapiens) (UniProt P11362); assay: Inhibition of human FGFR1 kinase at 10 uM relative to control
[33] = molecular target: Endothelin-1 receptor (Homo sapiens) (UniProt P25101); assay: Inhibition of human ETA at 10 uM relative to control

SMILES: O=C(c1nnc(NC2CCCC2)c2cc(Cl)c(Cl)cc12)N1CCC(O)CC1
Activity (U2OS [1]): inactive
Activity (U2OS [2]): inactive
Activity (MEF [3]): inactive

inhibition [4]: inactive
inhibition [5]: inactive
inhibition [6]: inactive
inhibition [7]: inactive
inhibition [8]: inactive
inhibition [9]: inactive
inhibition [10]: inactive
inhibition [11]: inactive
inhibition [12]: inactive
inhibition [13]: inactive
ΔTm [14]: 6.4 °C
inhibition [24]: 3%
inhibition [25]: 1%
inhibition [26]: 1%
inhibition [27]: -1%
inhibition [28]: -2%
inhibition [29]: -4%
inhibition [30]: -4%
inhibition [31]: -6%
inhibition [32]: -8%
inhibition [33]: -5%
SMILES: Clc1cc2c(NC3CCCC3)nnc(-c3ccncc3)c2cc1Cl
inhibition (U2OS [15]): Active
Activity (U2OS [16]): Active
Activity (U2OS [17]): Active
Activity (PC-3): Active
Activity (HeLa): Active
Activity (MEF [18]): Active
Activity (U2OS [19]): Active
Activity (U2OS [20]): Active
Activity (U2OS [21]): Active
inhibition (U2OS [22]): Active
inhibition (U2OS [23]): Active
